According to publication PMC12786457, “Studies on the Complexation of Platinum(II) by Some 4-Nitroisothiazoles and the Cytotoxic Activity of the Resulting Complexes” (Molecules, 2025):
“Also recorded” adds a separate entry of the source. Like-named read-outs stand apart in the source and are kept apart here. Blank lines part the entries; values can stand above or below the molecule they belong to.

Tests used:
[1] = cited from earlier work
[2] = Solubility in solvents (qualitative); type: physicochemical
[3] = system: BALB/3T3 (mouse embryonic fibroblast); test: SRB (sulforhodamine B) viability assay, normal cells BALB/3T3; type: cell-based; details: normoxia, read-out: IC50 ± SD, Normal Cells BALB/3T3, Normoxia
Experimental: (§1) The cytotoxicity of the complexes C1–C5 was estimated by examining cell viability using the sulforhodamine B assay. […] However, due to the very poor solubility of the most polar complex C5 in acetone, its initial solution had to be prepared in polar N,N-dimethylacetamide (DMA) (see Section 3.7). Cisplatin was used as the reference drug. The results are presented as IC50 (50% inhibitory concentration), i.e., concentrations that reduce cell survival by 50%. The test was conducted on three cancer cell lines and one normal healthy cell line, namely, breast adenocarcinoma (MCF-7), ovarian adenocarcinoma (ES-2), lung adenocarcinoma (A549), and murine embryonic fibroblast (BALB/3T3).
(§2) Three solid tumor cell lines were used in this study: MCF-7 (breast adenocarcinoma), ES-2 (ovarian adenocarcinoma), and A549 (lung adenocarcinoma). The BALB/3T3 (mouse embryonic fibroblast) cell line was used as a comparative nonpathological tissue. All cell lines were purchased from the American Type Culture Collection (ATCC, Rockville, MD, USA). The preparation of cell cultures for cytotoxicity experiments is described in detail in the following article.
(§3) The initial solutions for subsequent dilutions in biological medium were prepared in a similar manner as described previously. […] The complex C5 was dissolved in the dimethylacetamide (DMA). All the initial solutions were prepared ex tempore and then were added to the culture medium 1:9 (v/v) to obtain a stock solution of 1 mg/mL.
(§4) The test was prepared and performed in the same manner as detailed in the following cited works.

[4] = system: ES-2 (ovarian adenocarcinoma); test: SRB (sulforhodamine B) viability assay, ES-2; type: cell-based, human
Experimental: as §1, §2, §3, §4

[5] = system: MCF-7 (breast adenocarcinoma); test: SRB (sulforhodamine B) viability assay, MCF-7; type: cell-based, human; details: SRB assay
Experimental: as §1, §2, §3, §4

[6] = system: A549 (lung adenocarcinoma); test: SRB (sulforhodamine B) viability assay, A549; type: cell-based, human; details: SRB assay
Experimental: as §1, §2, §3, §4

[7] = TLC Rf as a measure of relative lipophilicity; type: physicochemical; details: silica gel TLC Al foils
Experimental: Measurement of the melting points (m.p.) of the obtained compounds was performed with the Büchi M560 melting point device (BÜCHI Labortechnik AG, CH-9230 Flawil/SG, Flawil, Switzerland) and was uncorrected. The ESI-MS (electrospray ionization mass spectroscopy) spectra were recorded with the compactTM Bruker Daltonics Electrospray Ionization Quadrupole Time-of-Flight (ESI-Q-TOF) spectrometer (Bruker Daltonics GmbH, Bremen, Germany). The ESI-MS measurements for new compounds were performed in both positive- and negative-ion mode in LC-MS-grade using LC-MS grade methanol as a solvent. ESI-MS spectral analysis and the simulation of the theoretical monoisotopic mass of detected ions were performed using Bruker Compass Data Analysis 4.2 software (Bruker Daltonics GmbH, Bremen, Germany). All ^1H and ^13C-NMR spectra were recorded on the following instruments: Bruker NMR AVANCE III™ 600 MHz spectrometer with Ascend™ technology magnet with a quadruple resonance NMR ‘inverse’ cryoprobe (Bruker Corporation, Billerica, MA, USA) and/or Bruker ARX-300 (300 MHz) spectrometer (Bruker Analytische Messtechnik GmbH, Rheinstetten, Germany). The NMR measurements of samples of the compounds were carried out at room temperature (20–25 °C) using 5 mm tubes in deuterated acetone-d6. NMR chemical shifts were referenced to the solvent signal, i.e., for ^1H-NMR: δ (quintet of residual acetone-d6) = 2.05 ppm and for ^13C-NMR: δ (septet of acetone-d6) = 29.84 ppm. The Nicolet iS50 FT-IR spectrophotometer (Thermo Fisher Scientific Inc., Waltham, MA, USA) was used to record the Attenuated Total Reflectance IR (ATR-FT-IR) spectra (at MIR range 4000–450 cm^−1). Recording of spectra was performed on the diamond crystal surface (32 scans, resolution: 1 cm^−1, measurement temperature: 20–25 °C) with ATR intensity correction in the Laboratory of Elemental Analysis and Structural Research, Faculty of Pharmacy, Wroclaw Medical University. A Fourier transform, Bruker VERTEX 70V vacuum spectrometer equipped with an air-cooled DTGS detector was used to obtain the Far-IR (far-infrared) spectra (below 500 cm^−1) of the Pt(II) complexes. The spectra measurements were conducted with the ATR accessory, such as a diamond ATR crystal, in the resolution of 1 cm^−1 with 64 scans in the Laboratory of Vibrational Spectroscopy of the Faculty of Chemistry at Wrocław University of Science and Technology. No ATR intensity correction was applied to Far-IR spectra. Omnic 9.3.30 and Omnic Specta 2.0 software (Thermo Fisher Scientific Inc.) was used to process and analyze spectra. A double beam U-2800 Spectrophotometer (Hitachi—Science & Technology, Tokyo, Japan) was used to record UV spectra of Pt-complexes (C1 and C2) and reaction rate measurements of the GSH complexes. Dioxane solutions of complexes were used in the following concentrations: c = 2 × 10^−5 M and 3 × 10^−5 M, respectively, for C1 and C2. Measurement of UV spectra was conducted in quartz cuvettes (path length = 10.0 mm) in the range 190–400 nm (sampling interval 1 nm, scan speed 200 nm/min). All UV experiments were performed in the Laboratory of Elemental Analysis and Structural Research, Faculty of Pharmacy, Wroclaw Medical University. Baselines were corrected with pure dioxane as the reference solvent. Thin-layer chromatography (TLC) was used to monitor the progress of the reaction course and determine the purity of the synthesized compounds. Silica gel on TLC Al foils with fluorescent indicator 254 nm (Sigma-Aldrich, Merck Group, Darmstadt, Germany) was used as the stationary phase and chloroform–acetone mixtures (volume ratios 9:1, 7:3, and 1:1) as the eluent. Detection of Pt(II) compounds in the chromatograms was performed using a 0.5% acetone solution of rubeanic acid (dithiooxamide), and organic impurities were detected by observing the plates under UV light at 250 nm. […]

[8] = TLC Rf as a measure of relative lipophilicity; type: physicochemical; details: silica gel TLC Al foils; remark: listed apart in the source
[9] = earlier work of the authors, same methodology
[10] = hypoxia, read-out: IC50 ± SD, ES-2 (Ovarian), Hypoxia
[11] = normoxia, read-out: IC50 ± SD, ES-2 (Ovarian), Normoxia
[12] = hypoxia, read-out: IC50 ± SD, MCF-7 (Breast), Hypoxia
[13] = normoxia, read-out: IC50 ± SD, MCF-7 (Breast), Normoxia
[14] = normoxia, read-out: IC50 ± SD, A549 (Lung), Normoxia

Molecule: Cn1cc([N+](=O)[O-])cn1.Cn1cc([N+](=O)[O-])cn1.[Cl][Pt][Cl] [trans-Pt(NO2Pyraz)2Cl2, trans-[PtCl2 (1-methyl-4-nitropyrazole)2]]
- Half-time, t1/2 of reaction with GSH [1, 9]: 13 min [17]

Molecule: N.N.O=C([O-])C1(C(=O)[O-])CCC1.[Pt+2] [Carboplatin]
- Half-time, t1/2 of reaction with GSH ([1]; literature value): 16.7–32.7 h [35]

Molecule: Cc1noc(C)c1[N+](=O)[O-].Cc1noc(C)c1[N+](=O)[O-].[Cl][Pt][Cl] [trans-Pt(NO2Isoxazol)2Cl2, trans-dichlorobis(3,5-dimethyl-4-nitro-isoxazole)platinum(II)]
- Half-time, t1/2 of reaction with GSH [1, 9]: 18 min [18]

Molecule: Cc1noc(C)c1[N+](=O)[O-].Cc1noc(C)c1[N+](=O)[O-].[Cl][Pt@SP1][Cl] [cis-Pt(NO2Isoxazol)2Cl2]
- Half-time, t1/2 of reaction with GSH [1, 9]: 42 min [18]

Molecule: Cn1cc([N+](=O)[O-])cn1.Cn1cc([N+](=O)[O-])cn1.[Cl][Pt@SP1][Cl] [cis-Pt(NO2Pyraz)2Cl2]
- Half-time, t1/2 of reaction with GSH [1, 9]: 83 min [17]

- solubility in acetonitrile ([2]; acetonitrile, relative to acetone): slightly better
- solubility in chloroform ([2]; chloroform): practically insoluble
- IC50 [4, 10]: 50.1 ± 7.97 µM
- IC50 [4, 11]: 62.5 ± 22.7 µM
- IC50 [5, 12]: 67.3 ± 28.3 µM
- IC50 [5, 13]: 57.6 ± 7.69 µM
- IC50 ± SD, A549 (Lung), Hypoxia ([6]; hypoxia): inactive
- IC50 [6, 14]: 66.2 ± 1.15 µM
- Rf, Eluent: Chlorofom:Acetone Ratio 1:1 Vol. [7]: 0.655
- Rf, Eluent: Chlorofom:Acetone Ratio 9:1 Vol. [7]: 0.005
- Rf, Eluent: Chlorofom:Acetone Ratio 9:7 Vol. [8]: 0.215
Molecule: cis-Dichlorobis(3-methyl-4-nitroisothiazole-5-carboxamide)platinum(II) [C5]
- solubility in acetone ([2]; acetone): very poorly soluble; also recorded: weakly soluble
- IC50 [3]: 64.2 ± 15.8 µM

Molecule: N.N.[Cl][Pt][Cl] [Cisplatin, cis-diamminodichloroplatinum, reference compound]
- IC50 [3]: 8.1 ± 5.61 µM
- IC50 [4, 10]: 6.28 ± 2.19 µM
- IC50 [4, 11]: 9.85 ± 4.68 µM
- IC50 [5, 12]: 9.74 ± 5.84 µM
- IC50 [5, 13]: 14.4 ± 1.4 µM
- IC50 ([6]; hypoxia, read-out: IC50 ± SD, A549 (Lung), Hypoxia): 14.8 ± 1.93 µM
- IC50 [6, 14]: 12.5 ± 1.64 µM

Molecule: N.N.[Cl][Pt+2][Cl] [Transplatin]
- Half-time, t1/2 of reaction with GSH ([1]; literature value): 4 min [36]

Molecule: O=C(O)C(=O)O.[NH-][C@@H]1CCCC[C@H]1[NH-].[Pt+2] [Oxaliplatin]
- Half-time, t1/2 of reaction with GSH ([1]; literature value, similar conditions): 44 min [35]
